Assay results as given in patent US20090215822A1, “Substituted Oxadiazole Derivatives as Positive Allosteric Modulators of Metabotropic Glutamate Receptors” (NIKEM RESEARCH SRL, priority 2005, published 2009).
pEC50: −log10 of the molar value.

Experiments:
rat mGluR5 receptor = molecular target: T1, rat mGluR5 receptor (Rattus norvegicus, UniProt P31424); assay: mGluR5 assay on HEK-expressing rat mGluR5 (fluorescent cell based Ca2+ mobilization assay); conditions: HEK-293 cells stably expressing rat mGluR5; no co-addition of glutamate; mean of at least three independent experiments in duplicate; read-out: Ca++ Flux (mean EC50)
T1 construct: expressed in transfected cells
Method: Positive functional expression of HEK-293 cells stably expressing rat mGluR5 receptor was determined by measuring intracellular Ca^2+ changes using a Fluorometric Imaging Plate Reader (FLIPR, Molecular Devices, Sunnyvale, Calif.) in response to glutamate or selective known mGluR5 agonists and antagonists. Rat mGluR5 RT-PCR products in HEK-293 cells were sequenced and found 100% identical to rat mGluR5 Genbank reference sequence (NM_017012). HEK-293 cells expressing rmGluR5 were maintained in media containing DMEM, dialyzed Fetal Bovine Serum (10%), Glutamax™ (2 mM), Penicillin (100 units/ml), Streptomycin (100 μg/ml), Geneticin (100 μg/ml) and Hygromycin-B (40 μg/ml) at 37° C./5% CO2.
After one day of incubation, cells were washed with assay buffer containing: 142 mM NaCl, 6 mM KCl, 1 mM Mg2SO4, 1 mM CaCl2, 20 mM HEPES, 1 g/L glucose, 0.125 mM sulfinpyrazone, pH 7.4. After 60 min of loading with 4 uM Fluo-4 (TefLabs, Austin, Tex.), the cells were washed three times with 50 μl of PBS Buffer and resuspended in […] of assay Buffer. The plates were then transferred to a Fluorometric Imaging Plate Reader (FLIPR, Molecular Devices, Sunnyvale, Calif.) for the assessment of intracellular calcium flux. After monitoring the baseline fluorescence for 10 seconds, increasing concentrations of representative compound (from 0.01 to 60 μM) of the present invention diluted in Assay Buffer (15 μl of 4× dilutions) was added to the cell. The final DMSO concentration in the assay was 0.3%. In each experiment, fluorescence was then monitored as a function of time for 3 minutes and the data analyzed using Microsoft Excel and GraphPad Prism. Each data point was also measured two times.
Under these experimental conditions, this HEK-rat mGluR5 cell line is able to directly detect positive allosteric modulators without the need of co-addition of glutamate or mGluR5 agonist.
The concentration-response curves of representative compounds of the present invention were generated using the Prism GraphPad software (Graph Pad Inc, San Diego, USA). The curves were fitted to a four-parameter logistic equation:
(Y=Bottom+(Top-Bottom)/(1+10̂((Log EC50−X)*Hill Slope)
allowing determination of EC50 values.
The Table 1 below represents the mean EC50 obtained from at least three independent experiments of selected molecules performed in duplicate.

T1 sequence (P31424 21-1171 isoform P31424-2 limits assumed): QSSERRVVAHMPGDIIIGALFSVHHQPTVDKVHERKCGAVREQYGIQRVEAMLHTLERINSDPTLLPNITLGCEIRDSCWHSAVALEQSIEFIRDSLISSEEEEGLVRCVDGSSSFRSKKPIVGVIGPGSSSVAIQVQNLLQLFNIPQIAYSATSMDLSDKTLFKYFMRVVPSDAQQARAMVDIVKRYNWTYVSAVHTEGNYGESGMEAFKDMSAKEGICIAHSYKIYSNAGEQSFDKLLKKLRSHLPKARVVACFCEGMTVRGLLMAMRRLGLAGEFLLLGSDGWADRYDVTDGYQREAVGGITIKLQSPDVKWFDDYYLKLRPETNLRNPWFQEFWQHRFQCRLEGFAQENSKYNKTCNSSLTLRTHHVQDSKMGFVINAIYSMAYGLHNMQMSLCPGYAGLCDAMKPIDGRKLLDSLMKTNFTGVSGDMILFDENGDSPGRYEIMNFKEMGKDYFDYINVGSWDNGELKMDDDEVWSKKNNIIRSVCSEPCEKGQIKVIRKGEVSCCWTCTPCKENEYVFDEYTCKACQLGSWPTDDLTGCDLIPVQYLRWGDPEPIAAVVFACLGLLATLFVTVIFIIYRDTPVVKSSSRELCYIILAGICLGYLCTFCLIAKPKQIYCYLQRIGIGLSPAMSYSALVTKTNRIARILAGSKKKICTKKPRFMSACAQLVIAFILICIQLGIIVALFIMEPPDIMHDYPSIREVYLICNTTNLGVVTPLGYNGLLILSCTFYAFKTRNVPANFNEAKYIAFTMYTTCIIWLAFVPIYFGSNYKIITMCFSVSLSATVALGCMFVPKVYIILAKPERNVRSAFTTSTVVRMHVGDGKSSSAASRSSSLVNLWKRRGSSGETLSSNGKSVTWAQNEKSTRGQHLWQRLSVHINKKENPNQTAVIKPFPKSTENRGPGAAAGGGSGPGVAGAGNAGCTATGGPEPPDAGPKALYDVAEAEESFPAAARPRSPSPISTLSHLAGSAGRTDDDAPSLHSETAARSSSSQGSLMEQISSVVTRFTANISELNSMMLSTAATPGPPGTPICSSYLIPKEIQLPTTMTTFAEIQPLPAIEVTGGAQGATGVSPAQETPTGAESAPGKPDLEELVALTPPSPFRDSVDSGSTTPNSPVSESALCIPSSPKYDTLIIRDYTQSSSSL

| Structure (SMILES) | pEC50 (rat mGluR5 receptor) | melting point [°C] |
| --- | --- | --- |
| O=C(c1ccc(F)cc1F)N1CCCC(c2noc(-c3ccc(F)cc3)n2)C1 (stereo not shown) [Example 18, (2,4-Difluoro-phenyl)-{3-[5-(4-fluoro-phenyl)-[1,2,4]oxadiazol-3-yl]-piperidin-1-yl}-methanone] | > 6.00 | 137 to 139 |
| O=C(c1ccc(F)nc1)N1CCCC(c2noc(-c3ccccn3)n2)C1 (stereo not shown) [Example 12, (6-Fluoro-pyridin-3-yl)-[3-(5-pyridin-2-yl-[1,2,4]oxadiazol-3-yl)-piperidin-1-yl]-methanone] | 5.00 to 6.00 | 124 to 126 |
| Cc1cc(F)ccc1C(=O)N1CCCC(c2noc(-c3ccc(F)cc3)n2)C1 (stereo not shown) [Example 27, (4-Fluoro-2-methyl-phenyl)-{3-[5-(4-fluoro-phenyl)-[1,2,4]oxadiazol-3-yl]-piperidin-1-yl}-methanone] | 5.00 to 6.00 | 129 to 131 |
| O=C(c1ccc(F)nc1)N1CCCC(c2noc(-c3cscn3)n2)C1 (stereo not shown) [Example 30, (6-Fluoro-pyridin-3-yl)-[3-(5-thiazol-4-yl-[1,2,4]oxadiazol-3-yl)-piperidin-1-yl]-methanone] | < 5.00 | 90 |
| O=C(c1ccc(F)c(F)c1)N1CCCC(c2noc(-c3ccncc3)n2)C1 (stereo not shown) [Example 15, (3,4-Difluoro-phenyl)-[3-(5-pyridin-4-yl-[1,2,4]oxadiazol-3-yl)-piperidin-1-yl]-methanone] | > 6.00 | 132 to 134 |
| O=C(c1ccc(F)nc1)N1CCCC(c2noc(-c3ccc(F)cc3)n2)C1 (stereo not shown) [Example 9, {3-[5-(4-Fluoro-phenyl)-[1,2,4]oxadiazol-3-yl]-piperidin-1-yl}-(6-fluoro-pyridin-3-yl)-methanone] | > 6.00 | 131 to 134 |
| O=C(c1ccc(F)cc1)N1CCCC(c2noc(-c3cscn3)n2)C1 (stereo not shown) [Example 8, (4-Fluoro-phenyl)-[3-(5-thiazol-4-yl-[1,2,4]oxadiazol-3-yl)-piperidin-1-yl]-methanone] | 5.00 to 6.00 | 128 |
| Cc1cc(F)ccc1C(=O)N1CCCC(c2noc(-c3ccncc3)n2)C1 (stereo not shown) [Example 22, (4-Fluoro-2-methyl-phenyl)-[3-(5-pyridin-4-yl-[1,2,4]oxadiazol-3-yl)-piperidin-1-yl]-methanone] | 5.00 to 6.00 |  |
| O=C(c1ccc(F)c(F)c1)N1CCC[C@H](c2noc(-c3ccccn3)n2)C1 [Example 47, (S)-(3,4-Difluorophenyl)-{3-[5-(pyridin-2-yl)-[1,2,4]oxadiazol-3-yl]-piperidin-1-yl}-methanone] | > 6.00 |  |
| O=C(c1cncc(F)c1)N1CCC[C@H](c2noc(-c3ccc(F)cc3)n2)C1 [Example 43, {(S)-3-[5-(4-Fluoro-phenyl)-[1,2,4]oxadiazol-3-yl]-piperidin-1-yl}-(5-fluoro-pyridin-3-yl)-methanone] | 5.00 to 6.00 |  |
| O=C(c1ccc(F)c(F)c1)N1CCC[C@H](c2noc(-c3ccc(F)cn3)n2)C1 [Example 45, (S)-(3,4-difluorophenyl)-{3-[5-(5-fluoropyridin-2-yl)-[1,2,4]oxadiazol-3-yl]-piperidin-1-yl}-methanone] | > 6.00 |  |
| O=C(c1ccc(F)cc1)N1CCCC(c2noc(-c3ccccc3)n2)C1 (stereo not shown) [Example 26, (4-Fluoro-phenyl)-[3-(5-phenyl-[1,2,4]oxadiazol-3-yl)-piperidin-1-yl]-methanone] | > 6.00 |  |
| O=C(c1c(F)cc(F)cc1F)N1CCC[C@H](c2noc(-c3ccccn3)n2)C1 [Example 51, [(S)-3-(5-Pyridin-2-yl-[1,2,4]oxadiazol-3-yl)-piperidin-1-yl]-(2,4,6-trifluoro-phenyl)-methanone] | > 6.00 |  |
| O=C(c1ccc(F)cc1)N1CCCC(c2noc(C3CCCC3)n2)C1 (stereo not shown) [Example 35, (4-Fluoro-phenyl)-[3-(5-cyclopentyl-[1,2,4]oxadiazol-3-yl)-piperidin-1-yl]-methanone] | 5.00 to 6.00 |  |
| O=C(c1ccc(F)cc1)N1CCC[C@H](c2noc(-c3ccccn3)n2)C1 [Example 46, (S)-(4-fluorophenyl)-{3-[5-(pyridin-2-yl)-[1,2,4]oxadiazol-3-yl]-piperidin-1-yl}-methanone] | 5.00 to 6.00 |  |
| O=C(c1ccncc1F)N1CCC[C@H](c2noc(-c3ccc(F)cc3)n2)C1 [Example 41, {(S)-3-[5-(4-Fluoro-phenyl)-[1,2,4]oxadiazol-3-yl]-piperidin-1-yl}-(3-fluoro-pyridin-4-yl)-methanone] | > 6.00 |  |
| Cn1cnc(-c2nc([C@H]3CCCN(C(=O)c4ccc(F)cc4)C3)no2)c1 [Example 48, (4-Fluoro-phenyl)-{(S)-3-[5-(1-methyl-1H-imidazol-4-yl)-[1,2,4]oxadiazol-3-yl]-piperidin-1-yl}-methanone] | < 5.00 |  |

Second part, the compound after the results:

| pEC50 (rat mGluR5 receptor) | melting point [°C] | Structure (SMILES) |
| --- | --- | --- |
| 5.00 to 6.00 |  | Cc1cc(F)ccc1C(=O)N1CCCC(c2noc(-c3ccccc3)n2)C1 (stereo not shown) [Example 34, (4-Fluoro-2-methyl-phenyl)-[3-(5-phenyl-[1,2,4]oxadiazol-3-yl)-piperidin-1-yl]-methanone] |
| < 5.00 |  | Cc1oncc1C(=O)N1CCCC(c2noc(-c3ccncc3)n2)C1 (stereo not shown) [Example 20, (5-Methyl-isoxazol-4-yl)-[3-(5-pyridin-4-yl-[1,2,4]oxadiazol-3-yl)-piperidin-1-yl]-methanone] |
| 5.00 to 6.00 |  | Cc1cc(F)ccc1C(=O)N1CCCC(c2noc(-c3ccccc3F)n2)C1 (stereo not shown) [Example 23, (4-Fluoro-2-methyl-phenyl)-{3-[5-(2-fluoro-phenyl)-[1,2,4]oxadiazol-3-yl]-piperidin-1-yl}-methanone] |
| > 6.00 | 105 to 107 | Cc1oncc1C(=O)N1CCCC(c2noc(-c3ccc(F)cc3)n2)C1 (stereo not shown) [Example 28, {3-[5-(4-Fluoro-phenyl)-[1,2,4]oxadiazol-3-yl]-piperidin-1-yl}-(5-methyl-isoxazol-4-yl)-methanone] |
| 5.00 to 6.00 | 87 | O=C(c1ccc(F)nc1)N1CCCC(c2noc(-c3ccc(F)cc3F)n2)C1 (stereo not shown) [Example 25, {3-[5-(2,4-Difluoro-phenyl)-[1,2,4]oxadiazol-3-yl]-piperidin-1-yl}-(6-fluoro-pyridin-3-yl)-methanone] |
| > 6.00 |  | O=C(c1ccc(F)cc1F)N1CCCC(c2noc(-c3ccccc3F)n2)C1 (stereo not shown) [Example 4, (2,4-Difluoro-phenyl)-{3-[5-(2-fluoro-phenyl)-[1,2,4]oxadiazol-3-yl]-piperidin-1-yl}-methanone] |
| > 6.00 |  | Cc1oncc1C(=O)N1CCCC(c2noc(-c3ccccc3F)n2)C1 (stereo not shown) [Example 7, {3-[5-(2-Fluoro-phenyl)-[1,2,4]oxadiazol-3-yl]-piperidin-1-yl}-(5-methyl-isoxazol-4-yl)-methanone] |
| 5.00 to 6.00 |  | O=C(c1c(F)cccc1F)N1CCC[C@H](c2noc(-c3ccccn3)n2)C1 [Example 53, (2,6-Difluoro-phenyl)-[(S)-3-(5-pyridin-2-yl-[1,2,4]oxadiazol-3-yl)-piperidin-1-yl]-methanone] |
| 5.00 to 6.00 |  | O=C(c1ccc(F)cc1)N1CCC[C@H](c2noc(-c3ccncc3F)n2)C1 [Example 49, (4-Fluoro-phenyl)-{(S)-3-[5-(3-fluoro-pyridin-4-yl)-[1,2,4]oxadiazol-3-yl]-piperidin-1-yl}-methanone] |
| > 6.00 |  | O=C(c1ccc(F)c(F)c1F)N1CCC[C@H](c2noc(-c3ccccn3)n2)C1 [Example 52, [(S)-3-(5-Pyridin-2-yl-[1,2,4]oxadiazol-3-yl)-piperidin-1-yl]-(2,3,4-trifluoro-phenyl)-methanone] |
| 5.00 to 6.00 |  | O=C(c1cccc(F)c1F)N1CCC[C@H](c2noc(-c3ccccn3)n2)C1 [Example 55, (2,3-Difluoro-phenyl)-[(S)-3-(5-pyridin-2-yl-[1,2,4]oxadiazol-3-yl)-piperidin-1-yl]-methanone] |
| 5.00 to 6.00 |  | O=C(c1ccc(F)c(F)c1)N1CCC[C@H](c2noc(-c3ccncc3F)n2)C1 [Example 50, (3,4-Difluoro-phenyl)-{(S)-3-[5-(3-fluoro-pyridin-4-yl)-[1,2,4]oxadiazol-3-yl]-piperidin-1-yl}-methanone] |
| > 6.00 |  | O=C(c1cc(F)ccc1F)N1CCC[C@H](c2noc(-c3ccccn3)n2)C1 [Example 54, (2,5-Difluoro-phenyl)-[(S)-3-(5-pyridin-2-yl-[1,2,4]oxadiazol-3-yl)-piperidin-1-yl]-methanone] |
| 5.00 to 6.00 |  | CNc1cc(F)ccc1C(=O)N1CCCC(c2noc(-c3ccccc3F)n2)C1 (stereo not shown) [Example 5, (4-Fluoro-2-methylamino-phenyl)-{3-[5-(2-fluoro-phenyl)-[1,2,4]oxadiazol-3-yl]-piperidin-1-yl}-methanone] |
